22 compounds from patent US7208500B2, “Thienopyridine-phenylacetamides and their derivatives useful as new anti-angiogenic agents” (Agouron Pharmaceuticals, Inc., priority 2003, dated 2007) can be followed below.

The structures appear in SMILES notation.

In assay [1] the target is T1, unphosphorylated VEGF-R2D50 (FLVK), cytosolic domain of human VEGF-R2 (Homo sapiens, UniProt P35968, DEL940-989/E990V).
T1 construct: VEGF-R2D50 contains residues 806–939 and 990–1171; made in house; host or cells: baculovirus/insect cell system
T1 sequence (P35968 with tags, fused parts or gaps DEL940-989/E990V limits assumed): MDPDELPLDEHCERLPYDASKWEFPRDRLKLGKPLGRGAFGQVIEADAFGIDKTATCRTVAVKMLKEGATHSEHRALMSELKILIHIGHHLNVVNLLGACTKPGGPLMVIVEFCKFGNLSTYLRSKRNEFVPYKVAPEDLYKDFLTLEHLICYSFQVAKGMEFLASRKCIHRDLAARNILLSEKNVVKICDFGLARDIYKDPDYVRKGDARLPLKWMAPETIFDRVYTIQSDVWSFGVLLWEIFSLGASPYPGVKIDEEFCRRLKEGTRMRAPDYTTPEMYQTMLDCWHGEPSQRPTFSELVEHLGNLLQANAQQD
In words: VEGF-R2 coupled spectrophotometric assay (FLVK). It counts as biochemical. From the text: This construct determines the ability of a test compound to inhibit tyrosine kinase activity. A construct (VEGF-R2D50) of the cytosolic domain of human vascular endothelial growth factor receptor 2 (VEGF-R2) lacking the 50 central residues of the 68 residues of the kinase insert domain was expressed in a baculovirus/insect cell system. Of the 1356 residues of full-length VEGF-R2, VEGF-R2D50 contains residues 806–939 and 990–1171, and also one point mutation (E990V) within the kinase insert domain relative to wild-type VEGF-R2. Autophosphorylation of the purified construct was performed by incubation of the enzyme at a concentration of […] in the presence of 3 mM ATP and 40 mM MgCl2 in 100 mM HEPES, pH 7.5, containing 5% glycerol and 5 mM DTT, at 4° C. for 2 h. […] See Parast et al., Biochemistry, 37, 16788–16801 (1998).
The production of ADP from ATP that accompanies phosphoryl transfer was coupled to oxidation of NADH using phosphoenolpyruvate (PEP) and a system having pyruvate kinase (PK) and lactic dehydrogenase (LDH). The oxidation of NADH was monitored by following the decrease of absorbance at 340 nm (e340=6.22 cm^−1 mM^−1) using a Beckman DU 650 spectrophotometer. Assay conditions for phosphorylated VEGF-R2D50 (indicated as FLVK-P in the tables below) were the following: 1 mM PEP; […]; 50 units of LDH/mL; 20 units of PK/mL; 5 mM DTT; 5.1 mM poly(E4Y1); 1 mM ATP; and 25 mM MgCl2 in 200 mM HEPES, pH 7.5. Assay conditions for unphosphorylated VEGF-R2D50 (indicated as FLVK in the tables) were the following: 1 mM PEP; […]; 50 units of LDH/mL; 20 units of PK/mL; 5 mM DTT; 20 mM poly(E4Y1); 3 mM ATP; and 60 mM MgCl2 and 2 mM MnCl2 in 200 mM HEPES, pH 7.5. Assays were initiated with 5 to 40 nM of enzyme. Ki values were determined by measuring enzyme activity in the presence of varying concentrations of test compounds. The percent inhibition at 50 nm (% inhibition@50 nm) was determined by linear least-squares regression analysis of absorpbance as a function of time. The binding inhibitions were fitted to equation as described by Morrison. The data were analyzed using Enzyme Kinetic and Kaleidagraph software.

The target of assay [2] is T2, FGF-R1 intracellular kinase domain (Homo sapiens, UniProt P11362, C488A/C584S/L457V).
T2 construct: starting from the endogenous methionine residue 456 to glutamate 766; made in house; host or cells: baculovirus vector expression system
T2 sequence (P11362 456-766 L457V/C488A/C584S): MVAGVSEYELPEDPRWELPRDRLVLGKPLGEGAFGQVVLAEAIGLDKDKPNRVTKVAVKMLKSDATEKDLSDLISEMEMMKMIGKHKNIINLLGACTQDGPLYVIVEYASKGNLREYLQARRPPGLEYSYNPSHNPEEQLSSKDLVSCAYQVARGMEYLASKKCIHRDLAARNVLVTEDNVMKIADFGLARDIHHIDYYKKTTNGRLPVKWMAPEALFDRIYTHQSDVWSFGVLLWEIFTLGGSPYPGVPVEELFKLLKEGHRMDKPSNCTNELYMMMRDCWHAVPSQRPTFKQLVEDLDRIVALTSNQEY
In words: FGF-R spectrophotometric assay. The note with it: 50 nM test compound; read-out: FGF-P (% inh @ 50 nM). It counts as biochemical. As for the experimental part: The intracellular kinase domain of human FGF-R1 was expressed using the baculovirus vector expression system starting from the endogenous methionine residue 456 to glutamate 766, according to the residue numbering system of Mohammadi et al., Mol. Cell. Biol., 16, 977–989 (1996). In addition, the construct also has the following 3 amino acid substitutions: L457V, C488A, and C584S.
The spectrophotometric assay was carried out as described above for VEGF-R2, except for the following changes in concentration: FGF-R=50 nM, ATP=2 mM, and poly(E4Y1)=15 mM.

Consider `Cc1cc(C)nc(NC(=O)Cc2ccc(Oc3ccnc4cc(-c5nccn5C)sc34)c(F)c2)c1` [Example 1, N-(4,6-Dimethyl-pyridin-2-yl)-2-{3-fluoro-4-[2-(1-methyl-1H-imidazol-2-yl)-thieno[3,2-b]pyridin-7-yloxy]-phenyl}-acetamide], for which the Ki (in general, the equilibrium dissociation constant of an inhibitor or competing ligand from its target) in assay [1] is below 0.001 µM. For the same compound, the inhibition at 0.05 µM in assay [2] fell in the range of 0 to 5%. In the same order, the values of `CNC(=O)Cc1ccc(Oc2ccnc3cc(C(=O)N4CC[C@@H](O)C4)sc23)c(F)c1` [Example 2, 2-{3-Fluoro-4-[2-((R)-3-hydroxy-pyrrolidine-1-carbonyl)-thieno[3,2-b]pyridin-7-yloxy]-phenyl}-N-methyl-acetamide] are above 0.01 µM and 0 to 5%. For the compound `Cc1cc(C)nc(NC(=O)Cc2ccc(Oc3ccnc4cc(C(=O)N(C)CCCN(C)C)sc34)cc2)c1` [Example 5, 7-{4-[(4,6-Dimethyl-pyridin-2-ylcarbamoyl)-methyl]-phenoxy}-thieno[3,2-b]pyridine-2-carboxylic acid (3-dimethylamino-propyl)-methyl-amide], the inhibition at 0.05 µM in assay [2] was in the range of 0 to 5%.

With `Cc1cccnc1NC(=O)Cc1ccc(Oc2ccnc3cc(C(=O)N4CCC4)sc23)cc1` [Example 26, 2-{4-[2-(Azetidine-1-carbonyl)-thieno[3,2-b]pyridin-7-yloxy]-phenyl}-N-(3-methyl-pyridin-2-yl)-acetamide], in assay [1], the Ki was above 0.01 µM.

In turn, `O=C(Cc1ccc(Oc2ccnc3cc(C(=O)N4CCC4)sc23)cc1)Nc1ccncc1` [Example 35, 2-{4-[2-(Azetidine-1-carbonyl)-thieno[3,2-b]pyridin-7-yloxy]-phenyl}-N-pyridin-4-yl-acetamide] displayed an inhibitory constant (Ki) in assay [1] above 0.01 µM. Besides, the inhibition at 0.05 µM in assay [2] lay within 0 to 5%. As for `Cc1cc(NC(=O)Cc2ccc(Oc3ccnc4cc(C(=O)N5CCC5)sc34)cc2)n[nH]1` [Example 39, 2-{4-[2-(Azetidine-1-carbonyl)-thieno[3,2-b]pyridin-7-yloxy]-phenyl}-N-(5-methyl-1H-pyrazol-3-yl)-acetamide], the inhibition at 0.05 µM in assay [2] lay within 0 to 5%. In the case of `O=C(Cc1ccc(Oc2ccnc3cc(C(=O)N4CCC4)sc23)cc1)Nc1cc[nH]n1` [Example 40, 2-{4-[2-(Azetidine-1-carbonyl)-thieno[3,2-b]pyridin-7-yloxy]-phenyl}-N-(1H-pyrazol-3-yl)-acetamide], in assay [1], the Ki was above 0.01 µM. In assay [2], the inhibition at 0.05 µM was in the range of 0 to 5%. `O=C(Cc1ccc(Oc2ccnc3cc(C(=O)N4CCC4)sc23)cc1)Nc1ccon1` [Example 42, 2-{4-[2-(Azetidine-1-carbonyl)-thieno[3,2-b]pyridin-7-yloxy]-phenyl}-N-isoxazol-3-yl-acetamide] showed a Ki in assay [1] above 0.01 µM. Further, the inhibition at 0.05 µM in assay [2] lay within 0 to 5%. In assay [1], `Cc1coc(NC(=O)Cc2ccc(Oc3ccnc4cc(C(=O)N5CCC5)sc34)cc2Cl)n1` [Example 54, 2-{4-[2-(Azetidine-1-carbonyl)-thieno[3,2-b]pyridin-7-yloxy]-2-chloro-phenyl}-N-(4-methyl-oxazol-2-yl)-acetamide] returned a Ki above 0.01 µM. The inhibition at 0.05 µM in assay [2] lay in the range of 0 to 5%. In assay [1], `O=C(Cc1ccc(Oc2ccnc3cc(C(=O)N4CCC4)sc23)cc1Cl)NCCCN1CCOCC1` [Example 57, 2-{4-[2-(Azetidine-1-carbonyl)-thieno[3,2-b]pyridin-7-yloxy]-2-chloro-phenyl}-N-(3-morpholin-4-yl-propyl)-acetamide] returned a Ki above 0.01 µM. For the same compound, the inhibition at 0.05 µM in assay [2] lay in the range of 0 to 5%. In assay [1], `Cc1ccc(CNC(=O)Cc2ccc(Oc3ccnc4cc(-c5nccn5C)sc34)cc2Cl)o1` [Example 58, 2-{2-Chloro-4-[2-(1-methyl-1H-imidazol-2-yl)-thieno[3,2-b]pyridin-7-yloxy]-phenyl}-N-(5-methyl-furan-2-ylmethyl)-acetamide] gave a Ki above 0.01 µM. Further, the inhibition at 0.05 µM in assay [2] lay in the range of 0 to 5%.

`Cn1ccnc1-c1cc2nccc(Oc3ccc(CC(=O)NCc4cccc(F)c4)c(Cl)c3)c2s1` [Example 59, 2-{2-Chloro-4-[2-(1-methyl-1H-imidazol-2-yl)-thieno[3,2-b]pyridin-7-yloxy]-phenyl}-N-(3-fluoro-benzyl)-acetamide]: in assay [1], the Ki is above 0.01 µM. Also, the inhibition at 0.05 µM in assay [2] lay in the range of 0 to 5%. The like results for `CNC(=O)Cc1ccc(Oc2ccnc3cc(C(=O)N4CCC4)sc23)cc1Cl` [Example 63, 2-{4-[2-(Azetidine-1-carbonyl)-thieno[3,2-b]pyridin-7-yloxy]-2-chloro-phenyl}-N-methyl-acetamide] were, in that order, above 0.01 µM and 0 to 5%.

For `CNC(=O)Cc1ccc(Oc2ccnc3cc(C(=O)N4CC[C@@H](O)C4)sc23)cc1Cl` [Example 64, 2-{2-Chloro-4-[2-((R)-3-hydroxy-pyrrolidine-1-carbonyl)-thieno[3,2-b]pyridin-7-yloxy]-phenyl}-N-methyl-acetamide], the Ki in assay [1] was above 0.01 µM. In addition, the inhibition at 0.05 µM in assay [2] lay within 0 to 5%.

In turn, `CNC(=O)Cc1ccc(Oc2ccnc3cc(-c4nccn4C)sc23)cc1Cl` [Example 65, 2-{2-Chloro-4-[2-(1-methyl-1H-imidazol-2-yl)-thieno[3,2-b]pyridin-7-yloxy]-phenyl}-N-methyl-acetamide] had a Ki in assay [1] above 0.01 µM. For the same compound, the inhibition at 0.05 µM in assay [2] lay within 0 to 5%. In the same order, the values of `CNC(=O)C1(c2ccc(Oc3ccnc4cc(C(=O)N5CC[C@@H](O)C5)sc34)cc2)CC1` [Example 67, 1-{4-[2-((R)-3-Hydroxy-pyrrolidine-1-carbonyl)-thieno[3,2-b]pyridin-7-yloxy]-phenyl}-cyclopropanecarboxylic acid methylamide] are above 0.01 µM and 0 to 5%.

Turning to `CNC(=O)Cc1ccc(Oc2ccnc3cc(C(=O)N4CC[C@H](OC)C4)sc23)cc1` [Example 68, 2-{4-[2-((S)-3-Methoxy-pyrrolidine-1-carbonyl)-thieno[3,2-b]pyridin-7-yloxy]-phenyl}-N-methyl-acetamide], in assay [1], the Ki is above 0.01 µM. Also, the inhibition at 0.05 µM in assay [2] fell in the range of 0 to 5%. The like results for `CNC(=O)C(OC)c1ccc(Oc2ccnc3cc(C(=O)N4CC[C@@H](O)C4)sc23)cc1Cl` (stereo partly drawn) [Example 70, 2-{2-Chloro-4-[2-((R)-3-hydroxy-pyrrolidine-1-carbonyl)-thieno[3,2-b]pyridin-7-yloxy]-phenyl}-2-methoxy-N-methyl-acetamide] were, in that order, above 0.01 µM and 5 to 10%. The like results for `CNC(=O)C(O)c1ccc(Oc2ccnc3cc(C(=O)N4CC[C@@H](O)C4)sc23)cc1Cl` (stereo partly drawn) [Example 71, 2-{2-Chloro-4-[2-((R)-3-hydroxy-pyrrolidine-1-carbonyl)-thieno[3,2-b]pyridin-7-yloxy]-phenyl}-2-hydroxy-N-methyl-acetamide] were, in that order, above 0.01 µM and 0 to 5%. Consider `CNC(=O)C(OC)c1ccc(Oc2ccnc3cc(-c4nccn4C)sc23)cc1Cl` (stereo not drawn) [Example 72, 2-{2-Chloro-4-[2-(1-methyl-1H-imidazol-2-yl)-thieno[3,2-b]pyridin-7-yloxy]-phenyl}-2-methoxy-N-methyl-acetamide], for which the inhibition at 0.05 µM in assay [2] fell in the range of 0 to 5%.

For `CNC(=O)C(O)c1ccc(Oc2ccnc3cc(-c4nccn4C)sc23)cc1Cl` (stereo not drawn) [Example 73, 2-{2-Chloro-4-[2-(1-methyl-1H-imidazol-2-yl)-thieno[3,2-b]pyridin-7-yloxy]-phenyl}-2-hydroxy-N-methyl-acetamide], in assay [2], the inhibition at 0.05 µM is 0 to 5%. In turn, `CNC(=O)C(O)c1ccc(Oc2ccnc3cc(-c4nc(C(C)(C)O)cs4)sc23)cc1` (stereo not drawn) [Example 75, 2-Hydroxy-2-(4-{2-[4-(1-hydroxy-1-methyl-ethyl)-thiazol-2-yl]-thieno[3,2-b]pyridin-7-yloxy}-phenyl)-N-methyl-acetamide] came in with an inhibitory constant (Ki) in assay [1] above 0.01 µM. In addition, the inhibition at 0.05 µM in assay [2] fell in the range of 0 to 5%.
